| melting point [°C] | Structure (SMILES) |
| --- | --- |
| 205 to 215 | Cl.O=C(N[C@@H](C(=O)N1CCC(Nc2ccncc2)CC1)c1ccccc1)c1ccc2cc[nH]c2c1 |
| 128 to 134 | O=C(N[C@@H](C(=O)N1CCC(Nc2ccccn2)CC1)c1ccccc1)c1ccc2cc[nH]c2c1 [Example 39, 1-(Indole-6-carbonyl-D-phenylglycinyl)-4-(pyridin-2-ylamino)piperidine] |

Source: patent US6878725B2, “Serine protease inhibitors” (Eli Lilly and Company, priority 2001, dated 2005)
